Experimental data taken from the OPERA property sets (Mansouri et al. 2018).

| logP | SMILES |
| --- | --- |
| -1.32 | CN(C=O)c1c(N)n(C)c(=O)n(C)c1=O |
| -1.18 | Cn1c(=O)[nH]c2[nH]c(=O)[nH]c(=O)c21 |
| -2.03 | CN(C=O)c1c(N)[nH]c(=O)n(C)c1=O |
| -1.08 | Cn1c(=O)[nH]c(=O)c2[nH]c(=O)[nH]c21 |
| -0.22 | Cn1c(=O)[nH]c2[nH]c(=O)n(C)c2c1=O |
| -0.37 | Cn1c(=O)c2c([nH]c(=O)n2C)n(C)c1=O |
| -0.27 | Cn1c(=O)[nH]c2nc[nH]c2c1=O |
| -0.52 | Cn1c(=O)c2[nH]c(=O)[nH]c2n(C)c1=O |
| -0.89 | Cn1cnc2[nH]c(=O)[nH]c(=O)c21 |
| -0.64 | Cn1c(N)c(NC=O)c(=O)n(C)c1=O |
| -1.3 | CN(C=O)c1c(N)n(C)c(=O)[nH]c1=O |
| -1.33 | Cn1c(=O)[nH]c(=O)c2c1[nH]c(=O)n2C |
| -0.57 | Cn1c(=O)[nH]c2[nH]c(=O)[nH]c2c1=O |

| SMILES | logP |
| --- | --- |
| Cn1c(=O)[nH]c(=O)c2[nH]cnc21 | -0.5 |
